The values that follow come from patent US20140066410A1, “INHIBITORS OF BROMODOMAINS AS MODULATORS OF GENE EXPRESSION” (ICAHN SCHOOL OF MEDICINE AT MOUNT SINAI, priority 2011, published 2014).

Where two headings read alike, the source gives them in different places. Where only a bound is given, the exact number is not on record here.

One test deals with CBP BRD (Homo sapiens, UniProt Q92793). As to the kind of experiment: Bromodomain binding affinity (tryptophan fluorescence binding assay). The procedure:
(§1) Monitoring change of intrinsic tryptophan fluorescence of a protein induced by ligand binding can be used to determine ligand binding affinity (KD). This assay was used to assess ligand binding to the CBP BRD and ischemin binding to the BRDs from other transcription proteins as follows. The chemical ligands were prepared at 500-850 μM in the PBS buffer. Their serial dilutions by a factor of 1.5 in a 384-wells black plate were carried out using a Tecan EVO200 liquid handler down to a concentration of 0.5 nM. Protein was added to the compounds to a final concentration in each well of 5 μM. Tryptophan fluorescence of the protein was measured (with excitation set at 280 nm, emission at 350 nm) on a Tecan Safire2 reader. Inner filter correction was introduced to take into account the possible intrinsic fluorescence of the compound. […] KD was calculated based on the curve fitting.

For another test, the target named is T1, PCAF (Homo sapiens, UniProt Q92831).
T1 sequence (Q92831 723-827 limits assumed): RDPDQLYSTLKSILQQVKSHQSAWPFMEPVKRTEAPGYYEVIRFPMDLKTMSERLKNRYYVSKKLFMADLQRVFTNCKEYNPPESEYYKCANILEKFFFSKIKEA
The description is as above. The procedure: as §1

A further test relates to NF-κB. The test is described as follows: TNFα-induced NF-kB activation, luciferase in NF-kB response element HEK293 cells. The format is cell-based. The following applies: Homo sapiens; NF-κB-response element stabilized HEK293 cells; read-out: IC50, inhibition of TNFα-induced activation of NF-κB. The procedure:
FIG. 5. […] A. NF-kB activation by TNFa (10 ng/mL). HEK 293 cells ([…]) in a 24-well plate were stabilized with NF-kB response element (NF-kB_RE) was treated with TNF. Twenty-four hours after the treatment, the cells were harvested and lysed, and luciferase activity was determined.
Dysregulation of macrophages and T cell functions trigger inflammatory responses contributing to IBD progression. Given its pro-inflammatory functions, NF-κB inhibition has anti-inflammatory effects, as shown by inhibition of IKK activity, which prevents phoshorylation and release of IκBα from NF-κB.

A further test deals with melanoma cells. The test is described as follows: Melanoma cell proliferation in vitro. The format is cell-based. The note with it: FIG. 6, FIG. 7.
The next test concerns melanocytes. As to the kind of experiment: Proliferation of normal melanocytes. The format is cell-based. The following applies: in vitro; FIG. 6.
In the next test the target is BRD4-1 (Homo sapiens, UniProt O60885). The test is described as follows: Bromodomain binding affinity (tryptophan fluorescence binding assay). The protocol: as §1
For the next test, the target named is BRD4-2 (Homo sapiens, UniProt O60885). Described as above. The procedure:
as §1

The mark [1] stands for this setting: Table 4, read-out: CBP (μM), bromodomain binding.
Setting [2] is: Table 4, read-out: PCAF (μM), bromodomain binding.

Sequence of CBP BRD (Q92793 1085-1192 limits assumed): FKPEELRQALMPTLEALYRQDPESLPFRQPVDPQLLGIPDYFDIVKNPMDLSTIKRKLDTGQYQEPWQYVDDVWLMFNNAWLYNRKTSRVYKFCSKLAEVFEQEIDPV

As for `Cc1cc(/N=N/c2ccc(S(=O)(=O)Nc3ccccn3)cc2)c(N)cc1O` [MS0129436], the Kd on CBP BRD (setting [1]) is 14 µM; on CBP BRD (Table 5, read-out: CBP) it was 14 µM; on PCAF (setting [2]), 6.8 µM; at PCAF (Table 5, read-out: PCAF), 8.6 µM. For the same molecule, the IC50 in the test on NF-κB is 0.057 µM. In the test with melanoma cells, the “Inhibition of melanoma cell proliferation” value is “inhibits proliferation”. In addition, the “Effect on normal melanocytes” value in the test with melanocytes is reported as “no effect”.
Take `O=C(O)c1cc(/N=N/c2ccc(S(=O)(=O)Nc3ccccn3)cc2)ccc1O` [Sulfasalazine (MS0123028), Sulfasalazine, reference compound]: the Kd on BRD4-1 (Table 4, read-out: BrD4-1 (μM), bromodomain binding) stood at 54 µM; at BRD4-1 (Table 5, read-out: BrD4-1), 54 µM; on BRD4-2 (Table 4, read-out: BrD4-2 (μM), bromodomain binding), 54 µM; on CBP BRD (setting [1]) it was 82 µM; at CBP BRD (Table 5, read-out: CBP) it was 82 µM; on PCAF (setting [2]) it was 88 µM. Further, the Kd at PCAF (Table 5, read-out: PCAF) amounted to 88 µM. Moreover, the IC50 in the test with NF-κB was determined as 0.22 µM.
With `Cc1cc(NNc2ccc(S(=O)(=O)NCc3ccc(C(F)(F)F)cc3)cc2)c(N)cc1O` [MS0129433], the Kd is 4.5 µM at BRD4-1 (Table 5, read-out: BrD4-1); 21 µM at BRD4-2 (Table 5, read-out: BrD4-2); over 100 µM at CBP BRD (Table 5, read-out: CBP); over 100 µM on PCAF (Table 5, read-out: PCAF). Also, in the test with NF-κB, the IC50 came to 0.057 µM.

As usually defined, the IC50 is the concentration needed to halve the response being measured.
